The subject of assay [1] is IL-17-induced GROα secretion from HT-29 cells. Description: GROα release assay in human colorectal adenocarcinoma epithelial cell (HT-29, ELISA). It counts as cell-based. Conditions: Homo sapiens, HT-29, 48 h, 10 ng/mL IL-17A, highest concentration 10 μM, read-out: Cellular assay HT29 cell/CXCL1 IC50. The method in brief:
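IC50 values come from four-parameter fits of GROα levels, quantified by ELISA (450 nm, standard curve) in supernatants. Compounds, 4-fold serially diluted from 10 μM, were mixed 15 min with IL-17A (10 ng/mL final) before 48 h incubation with HT-29 cells at 37°C.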

Assay [2] concerns the target human IL-17A / human IL-17RA (Homo sapiens (Human), UniProt Q16552). Description: Human IL-17A biochemical assay (HTRF, blocking of IL-17A binding to IL-17RA). To be noted: 0.4 nM IL-17A, 0.3 nM IL-17RA, max compound concentration 10 uM. In short, it runs like this: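 HTRF readout (ex337, em620/665 nm ratio) after anti-6His Tb cryptate and anti-human IgG-XL665 detection, 1 h RT. Beforehand, 0.4 nM IL-17A sat with compound 3 h RT, then 0.3 nM IL-17RA 1 h. IC50 by four-parameter logistic fit.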

Molecules are shown by their SMILES.

human IL-17A / human IL-17RA, sequence (Q16552 24-155): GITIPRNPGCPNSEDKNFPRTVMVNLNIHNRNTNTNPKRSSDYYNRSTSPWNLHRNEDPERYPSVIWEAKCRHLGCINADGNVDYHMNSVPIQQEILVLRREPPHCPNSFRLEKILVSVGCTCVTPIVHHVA

Take `Cc1nonc1C(=O)N[C@H](C(=O)Nc1ccc2c(c1)CC(c1c[nH]c(C3CC3)n1)(N1C[C@@H](C(C)C)NC1=O)C2)C(C1CC1)C1CC1` (stereo partly drawn) [Example 252, N-((2S)-1,1-dicyclopropyl-3-((2-(2-cyclopropyl-1H-imidazol-4-yl)-2-((R)-4-isopropyl-2-oxoimidazolidin-1-yl)-2,3-dihydro-1H-inden-5-yl)amino)-3-oxopropan-2-yl)-4-methyl-1,2,5-oxadiazole-3-carboxamide]: the IC50 in assay [1] was 1160 nM; in assay [2], 829 nM.
For `Cc1ccccc1NC(=O)C1(N2C[C@@H](C(C)C)NC2=O)Cc2ccc(NC(=O)[C@@H](NC(=O)c3nonc3C)C3CCC(F)(F)CC3)cc2C1` (stereo partly drawn) [Example 253, N-((1S)-1-(4,4-difluorocyclohexyl)-2-((2-((R)-4-isopropyl-2-oxoimidazolidin-1-yl)-2-(o-tolylcarbamoyl)-2,3-dihydro-1H-inden-5-yl)amino)-2-oxoethyl)-4-methyl-1,2,5-oxadiazole-3-carboxamide] the same measures were 331 nM and 355 nM.
For `COc1ccccc1NC(=O)C1(N2C[C@@H](C(C)C)NC2=O)Cc2ccc(NC(=O)[C@@H](NC(=O)c3nonc3C)C(C3CC3)C3CC3)cc2C1` (stereo partly drawn) [Example 254, N-((2S)-1,1-dicyclopropyl-3-((2-((R)-4-isopropyl-2-oxoimidazolidin-1-yl)-2-((2-methoxyphenyl)carbamoyl)-2,3-dihydro-1H-inden-5-yl)amino)-3-oxopropan-2-yl)-4-methyl-1,2,5-oxadiazole-3-carboxamide] the same measures were 318 nM and 178 nM.
For `Cc1nonc1C(=O)N[C@H](C(=O)Nc1ccc2c(c1)OC(CN1C[C@@H](C(F)(F)F)NC1=O)C2)C(C1CC1)C1CC1` (stereo partly drawn) [Example 255, N-((2S)-1,1-dicyclopropyl-3-oxo-3-((2-(((S)-2-oxo-4-(trifluoromethyl)imidazolidin-1-yl)methyl)-2,3-dihydrobenzofuran-6-yl)amino)propan-2-yl)-4-methyl-1,2,5-oxadiazole-3-carboxamide] the same measures were 666 nM and 165 nM.
As to `CC(C)n1nccc1C(=O)N[C@H](C(=O)Nc1ccc2c(c1)OC(CN1C[C@@H](C(F)(F)F)NC1=O)C2)C(C1CC1)C1CC1` (stereo partly drawn) [Example 256, N-((2S)-1,1-dicyclopropyl-3-oxo-3-((2-(((S)-2-oxo-4-(trifluoromethyl)imidazolidin-1-yl)methyl)-2,3-dihydrobenzofuran-6-yl)amino)propan-2-yl)-1-isopropyl-1H-pyrazole-5-carboxamide], the values for the IC50 in assay [1] and in assay [2] were 82 nM and 50.2 nM, respectively.
For `Cc1nonc1C(=O)N[C@H](C(=O)Nc1ccc2c(c1)OC(CN1C[C@@H](C(F)(F)F)NC1=O)C2)C1CCC(F)(F)CC1` (stereo partly drawn) [Example 257, N-((1S)-1-(4,4-difluorocyclohexyl)-2-oxo-2-((2-(((S)-2-oxo-4-(trifluoromethyl)imidazolidin-1-yl)methyl)-2,3-dihydrobenzofuran-6-yl)amino)ethyl)-4-methyl-1,2,5-oxadiazole-3-carboxamide], the IC50 in assay [1] came to 2500 nM; in assay [2], 938 nM.
For `Cn1nccc1C(=O)N[C@H](C(=O)Nc1ccc2c(c1)OC(CN1C[C@@H](C(F)(F)F)NC1=O)C2)C1CCC(F)(F)CC1` (stereo partly drawn) [Example 258, N-((1S)-1-(4,4-difluorocyclohexyl)-2-oxo-2-((2-(((S)-2-oxo-4-(trifluoromethyl)imidazolidin-1-yl)methyl)-2,3-dihydrobenzofuran-6-yl)amino)ethyl)-1-methyl-1H-pyrazole-5-carboxamide] the same measures were 209 nM and 108 nM.
In the case of `Cc1nonc1C(=O)N[C@H](C(=O)Nc1ccc2c(c1)CC(C(=O)Nc1cccc(Cl)c1)(N1C[C@@H](C(C)C)NC1=O)C2)C(C1CC1)C1CC1` (stereo partly drawn) [Example 259, N-((2S)-1-((2-((3-chlorophenyl)carbamoyl)-2-((R)-4-isopropyl-2-oxoimidazolidin-1-yl)-2,3-dihydro-1H-inden-5-yl)amino)-3,3-dicyclopropyl-1-oxopropan-2-yl)-4-methyl-1,2,5-oxadiazole-3-carboxamide], the IC50 was determined as 1970 nM in assay [1] and 1020 nM in assay [2].
With `Cc1ccccc1NC(=O)C1(N2C[C@@H](C(C)C)NC2=O)Cc2ccc(NC(=O)[C@@H](NC(=O)c3nonc3C)C(C3CC3)C3CC3)cc2C1` (stereo partly drawn) [Example 261, N-((2S)-1,1-dicyclopropyl-3-((2-((R)-4-isopropyl-2-oxoimidazolidin-1-yl)-2-(o-tolylcarbamoyl)-2,3-dihydro-1H-inden-5-yl)amino)-3-oxopropan-2-yl)-4-methyl-1,2,5-oxadiazole-3-carboxamide], the IC50 in assay [1] came out at 143 nM; in assay [2], 58 nM.
For `Cc1nonc1C(=O)N[C@H](C(=O)Nc1ccc2c(c1)CC(C(=O)Nc1ccccc1F)(N1C[C@@H](C(C)C)NC1=O)C2)C(C1CC1)C1CC1` (stereo partly drawn) [Example 262, N-((2S)-1,1-dicyclopropyl-3-((2-((2-fluorophenyl)carbamoyl)-2-((R)-4-isopropyl-2-oxoimidazolidin-1-yl)-2,3-dihydro-1H-inden-5-yl)amino)-3-oxopropan-2-yl)-4-methyl-1,2,5-oxadiazole-3-carboxamide] the same measures were 447 nM and 99.4 nM.
For `Cc1nonc1C(=O)N[C@H](C(=O)Nc1ccc2c(c1)CC(C(=O)Nc1ccccc1Cl)(N1C[C@@H](C(C)C)NC1=O)C2)C(C1CC1)C1CC1` (stereo partly drawn) [Example 263, N-((2S)-1-((2-((2-chlorophenyl)carbamoyl)-2-((R)-4-isopropyl-2-oxoimidazolidin-1-yl)-2,3-dihydro-1H-inden-5-yl)amino)-3,3-dicyclopropyl-1-oxopropan-2-yl)-4-methyl-1,2,5-oxadiazole-3-carboxamide] the same measures were 447 nM and 97.1 nM.
For `Cc1nonc1C(=O)N[C@H](C(=O)Nc1ccc2c(c1)CC(C#N)(N1C[C@@H](C(C)C)NC1=O)C2)C(C1CC1)C1CC1` (stereo partly drawn) [Example 266, N-((2S)-1-((2-cyano-2-((R)-4-isopropyl-2-oxoimidazolidin-1-yl)-2,3-dihydro-1H-inden-5-yl)amino)-3,3-dicyclopropyl-1-oxopropan-2-yl)-4-methyl-1,2,5-oxadiazole-3-carboxamide] the same measures were 659 nM and 912 nM.
Take `Cc1nonc1C(=O)N[C@H](C(=O)Nc1ccc2c(c1)CC(C(=O)Nc1ccccc1C(F)F)(N1C[C@@H](C(C)C)NC1=O)C2)C(C1CC1)C1CC1` (stereo partly drawn) [Example 268, N-((2S)-1,1-dicyclopropyl-3-((2-((2-(difluoromethyl)phenyl)carbamoyl)-2-((R)-4-isopropyl-2-oxoimidazolidin-1-yl)-2,3-dihydro-1H-inden-5-yl)amino)-3-oxopropan-2-yl)-4-methyl-1,2,5-oxadiazole-3-carboxamide]: the IC50 in assay [1] was 248 nM; in assay [2], 88.1 nM.
For `Cc1nonc1C(=O)N[C@H](C(=O)Nc1ccc2c(c1)CC(C(=O)Nc1ccc(Cl)cc1)(N1C[C@@H](C(C)C)NC1=O)C2)C(C1CC1)C1CC1` (stereo partly drawn) [Example 269, N-((2S)-1-((2-((4-chlorophenyl)carbamoyl)-2-((R)-4-isopropyl-2-oxoimidazolidin-1-yl)-2,3-dihydro-1H-inden-5-yl)amino)-3,3-dicyclopropyl-1-oxopropan-2-yl)-4-methyl-1,2,5-oxadiazole-3-carboxamide] the same measures were 1070 nM and 416 nM.
`Cc1nonc1C(=O)N[C@H](C(=O)Nc1ccc2c(c1)CC(C(O)C(F)(F)F)(N1CC(C(F)(F)F)NC1=O)C2)C(C1CC1)C1CC1` (stereo partly drawn) [Example 270, N-((2S)-1,1-dicyclopropyl-3-oxo-3-((2-(2-oxo-4-(trifluoromethyl)imidazolidin-1-yl)-2-(2,2,2-trifluoro-1-hydroxyethyl)-2,3-dihydro-1H-inden-5-yl)amino)propan-2-yl)-4-methyl-1,2,5-oxadiazole-3-carboxamide]: the IC50 in assay [1] came out at 350 nM; in assay [2], 200 nM.
Regarding `Cc1nonc1C(=O)N[C@H](C(=O)Nc1ccc2c(c1)OC(CN1C[C@@H](C(C)C)NC1=O)C2)C(C1CC1)C1CC1` (stereo partly drawn) [Example 271, N-((2S)-1,1-dicyclopropyl-3-((2-(((R)-4-isopropyl-2-oxoimidazolidin-1-yl)methyl)-2,3-dihydrobenzofuran-6-yl)amino)-3-oxopropan-2-yl)-4-methyl-1,2,5-oxadiazole-3-carboxamide], the results for the IC50 in assay [1] and in assay [2] were 1380 nM and 268 nM, respectively.
For the molecule `Cc1nonc1C(=O)N[C@H](C(=O)Nc1ccc2c(c1)CC(C(=O)Nc1ccccc1C(F)(F)F)(N1C[C@@H](C(C)C)NC1=O)C2)C(C1CC1)C1CC1` (stereo partly drawn) [Example 272, N-((2S)-1,1-dicyclopropyl-3-((2-((R)-4-isopropyl-2-oxoimidazolidin-1-yl)-2-((2-(trifluoromethyl)phenyl)carbamoyl)-2,3-dihydro-1H-inden-5-yl)amino)-3-oxopropan-2-yl)-4-methyl-1,2,5-oxadiazole-3-carboxamide], the results for the IC50 in assay [1] and in assay [2] were 650 nM and 295 nM, respectively.
As to `Cc1nonc1C(=O)N[C@H](C(=O)Nc1ccc2c(c1)CC(C(=O)NC1CC1(F)F)(N1C[C@@H](C(C)C)NC1=O)C2)C(C1CC1)C1CC1` (stereo partly drawn) [Example 273, N-((2S)-1,1-dicyclopropyl-3-((2-((2,2-difluorocyclopropyl)carbamoyl)-2-((R)-4-isopropyl-2-oxoimidazolidin-1-yl)-2,3-dihydro-1H-inden-5-yl)amino)-3-oxopropan-2-yl)-4-methyl-1,2,5-oxadiazole-3-carboxamide], the IC50 is 66.1 nM in assay [1] and 34.7 nM in assay [2].

For the origin of these results see US20250154138A1, “Small Molecule IL-17A Modulators” (BeiGene, Ltd., priority 2022, published 2025).
